According to US6429287B1, “Isolated molecules which complex with HLA-Cw*16 molecules, and uses thereof” (Ludwig Institute for Cancer Research, priority 1996, dated 2002):
Ends that are not written are not given here.

What was measured:
[1] = system: HLA-Cw*1601 positive lymphoblastoid cell line, i.e., LB678-EBV; test: 51Cr release assay: peptide-stimulated lysis by CTLs; format: cell-based, human; details: for ability of the peptide to stimulate lysis by CTLs: 51Cr labelled LB678-EBV target cells, peptide 15 minutes at room temperature, CTLs added, 51Cr release after four hours at 37° C.
Experimental: Based upon this hypothesis, a series of peptides were constructed, and lyophilized prior to testing. The lyophilized peptides were dissolved in 1 volume of DMSO, then 9 volumes of H2O, plus 10 mM of acetic acid. The thus diluted peptides were stored at −20° C.
The ability of the peptides to stimulate lysis by CTLs was tested via the ^51Cr release method of Boon et al., J. Exp. Med. 152: 1184-1193 (1980). Specifically, an HLA-Cw*1601 positive lymphoblastoid cell line, i.e., LB678-EBV was ^51Cr labelled for one hour at 37° C., and washed extensively. Then 1000 of these target cells were incubated in 96 well microplates, in the presence of various concentrations of peptide, for 15 minutes, at room temperature. CTLs were then added, and ^51Cr release was measured after four hours, at 37° C.

[2] = target: HLA-Cw*1601 (Homo sapiens, UniProt P10321, /M331V/P208H/P217L/Q277E/Q291P/R121W/S123Y/S297R/S48A/T329A/T363A/V319A); details: disclosed in earlier applications Ser. No. 08/79,110 and 08/196,630; cited from earlier work

Substance	ability of the peptide to stimulate lysis by CTLs [1]	also measured
amino acids 3-10 of SEQ ID NO: 5: peptide consisting of amino acids 3-10 of SEQ ID NO: 5 (SGGPRISY)	neither one stimulated lysis	
KISGGPRISYPL [SEQ ID NO: 5, corresponds to amino acids 126-137 of MAGE-6]	Lysis first occurred	
amino acids 2-10 of SEQ ID NO: 5: nonamer consisting of amino acids 2-10 of SEQ ID NO: 5 (ISGGPRISY)		EC50 ([1]; 51Cr release, LB678-EBV target cells, CTLs, four hours at 37° C., FIG. 3, read-out: peptide concentration achieving half maximal lysis): 30 nM
AARAVFLAL [SEQ ID NO: 1, preferred BAGE-derived nonapeptide of earlier applications]		complexes with HLA-Cw*1601 and stimulates CTL 82/82 [2]: stimulating the cell line CTL 82/82
amino acids 1-9 of SEQ ID NO: 5: peptide consisting of amino acids 1-9 of SEQ ID NO: 5 (KISGGPRIS)	neither one stimulated lysis	
